What all share (format): cell-based
In assay [1] the test system is NS3/4a protease inhibitor resistant variant R155K in genotype 1a transient HCV replicon. Description: Transient-transfected HCV replicon, genotype 1a R155K. The settings on record: Hepatitis C virus, 72 h, read-out: EC50 1A R155K. In general terms: In antiviral work, replicon cells carry a viral genome segment that copies itself.
The subject of assay [2] is NS3/4a protease inhibitor resistant variant D168A in genotype 1b transient HCV replicon. Description: Transient-transfected HCV replicon, genotype 1b D168A. Conditions: Hepatitis C virus, 72 h, read-out: EC50 1B D168A.
Assay [3] relates to genotype 1b wild-type transient HCV replicon in Huh-7-derived cells. Description: Transient-transfected HCV replicon, genotype 1b wild type. The settings on record: Hepatitis C virus; transient-transfected replicon genotype 1b wild type, 72 h; read-out: EC50 1B WT.
The subject of assay [4] is genotype 1a (H77) wild-type transient HCV replicon in Huh-7-derived cells. Briefly: Transient-transfected HCV replicon, genotype 1a wild type. The settings on record: Hepatitis C virus; transient-transfected replicon genotype 1a wild type, 72 h; read-out: EC50 1A WT.
Assay [5] has as its system genotype 3a transient HCV replicon (S52) in Huh-7-derived cells. Description: Transient-transfected HCV replicon, genotype 3a wild type. Conditions: Hepatitis C virus; transient-transfected replicon genotype 3a wild type, 72 h; read-out: EC50 3A WT.
The test system of assay [6] is genotype 1b stable HCV replicon (Con1) in Huh-7-derived cells. Description: Stable subgenomic HCV replicon, genotype 1b, Renilla luciferase. The settings on record: Hepatitis C virus, stable replicon genotype 1b, 72 h, read-out: EC50 1B RLUC. The protocol: Antiviral potency (EC50) was determined in both stable subgenomic HCV replicon cell lines and transient-transfected HCV replicon cells. The term half maximal effective concentration (EC50) refers to the concentration of a drug which induces a response halfway between the baseline and maximum after the exposure time specified below.
Stable subgenomic HCV replicons for genotype 1a, 1b, 2a, 3a, and 4a were established in Huh-7-derived cells as described by Lohmann et al (Lohmann V, Korner F, Koch J, et al Replication of subgenomic hepatitis C virus RNAs in a hepatoma cell line. Science 1999; 285:119-3). Each stable cell line contains a bicistronic HCV replicon that encodes a humanized Renilla luciferase (hRLuc) reporter gene fused to a selectable neomycin-resistance gene, followed by an EMCV IRES and the NS3-NS5B coding region of HCV. […] Luciferase activity was measured as a marker for intracellular HCV replication levels.
The genotype 1a stable replicon was derived from the H77 HCV strain and contained adaptive mutations P1496L and S2204I. The genotype 1b stable replicon was derived from the Con1 HCV strain and contained adaptive mutations E1202G, T1280I, and K1846T. […] The genotype 3a stable replicon was derived from the S52 HCV strain and contained adaptive mutations P1121 L, A1198T and S2210I (equivalent to S2204I in genotype 1). The genotype 4a stable replicon was derived from the ED43 HCV strain and contained adaptive mutations Q1691R and S2204I. All replicon cell lines were propagated in Huh-7-derived cells and maintained in Dulbecco's modified Eagle's Medium (DMEM) supplemented with 10% fetal bovine serum (FBS) and 0.5 mg/ml G418.
To perform EC50 assays, cells from each HCV replicon were dispensed into 384-well plates. Compounds were dissolved in DMSO at a concentration of 10 mM and diluted in DMSO using an automated pipetting instrument. Three-fold serially diluted compounds were directly added to the cells using an automated instrument. DMSO was used as a negative (solvent; no inhibition) control, and a combination of three HCV inhibitors including a protease inhibitor; an NS5A inhibitor and a nucleoside inhibitor was used at concentrations >100×EC50 as a positive control (100% inhibition). Seventy-two hours later, cells were lysed and Renilla luciferase activity were quantified as recommended by the manufacturer (Promega-Madison, Wis.). Non-linear regression was performed to calculate […], values.

With `CC(C)(C)[C@@H]1NC(=O)O[C@@H]2C[C@@H]3C[C@@H]3[C@H]2CCCCCc2nc3ccc4ccccc4c3nc2OC2C[C@@H](C(=O)N[C@]3(C(=O)NS(=O)(=O)C4(C)CC4)C[C@H]3C(F)F)N(C2)C1=O` (stereo partly drawn) [Example 22, (33R,35S,91S,93R,94R,95S,5S)-5-(tert-butyl)-N-((1R,2R)-2-(difluoromethyl)-1-(((1-methylcyclopropyl)sulfonyl)carbamoyl)cyclopropyl)-4,7-dioxo-2,8-dioxa-6-aza-1(2,3)-benzo[f]quinoxalina-3(3,1)-pyrrolidina-9(3,4)-bicyclo[3.1.0]hexanacyclotetradecaphane-35-carboxamide], the concentration giving a half-maximal response (EC50) (usually the concentration giving half of the maximal effect) was 2.7 nM in assay [1]; 18 nM in assay [2]; 2 nM in assay [3]; 1.7 nM in assay [4]; 5.5 nM in assay [5]; 5.06 nM in assay [6].
Turning to `CC(C)(C)[C@@H]1NC(=O)O[C@@H]2C[C@@H]3C[C@@H]3[C@H]2CCCCCc2nc3ccc(C#N)cc3nc2O[C@@H]2C[C@@H](C(=O)N[C@]3(C(=O)NS(=O)(=O)C4(C)CC4)C[C@H]3C(F)F)N(C2)C1=O` [Example 23, (33R,35S,91S,93R,94R,95S,5S)-5-(tert-butyl)-17-cyano-N-((1R,2R)-2-(difluoromethyl)-1-(((1-methylcyclopropyl)sulfonyl)carbamoyl)cyclopropyl)-4,7-dioxo-2,8-dioxa-6-aza-1(2,3)-quinoxalina-3(3,1)-pyrrolidina-9(3,4)-bicyclo[3.1.0]hexanacyclotetradecaphane-35-carboxamide], the EC50 in assay [1] was determined as 2.3 nM; in assay [2], 11 nM; in assay [3], 0.9 nM; in assay [4], 1.2 nM; in assay [5], 9.5 nM; in assay [6], 2.93 nM.
Take `CC(C)(C)[C@@H]1NC(=O)O[C@@H]2C[C@@H]3C[C@@H]3[C@H]2CCCCCn2c(nc3ccccc3c2=O)O[C@@H]2C[C@@H](C(=O)N[C@]3(C(=O)NS(=O)(=O)C4(C)CC4)C[C@H]3C(F)F)N(C2)C1=O` [Example 24, (1aS,2aR,6S,9S,11R,24aR,24bS)-6-tert-butyl-N-[(1R,2R)-2-(difluoromethyl)-1-{[(1-methylcyclopropyl)sulfonyl]carbamoyl}cyclopropyl]-4,7,18-trioxo-1a,2,2a,4,5,6,7,10,11,20,21,22,23,24,24a,24b-hexadecahydro-1H,9H,18H-8,11-methanocyclopropa[4′,5′]cyclopenta[1′,2′:18,19][1,10,3,6,12]dioxatriazacyclonona decino[11,12-b]quinazoline-9-carboxamide]: the EC50 in assay [1] came to 1.5 nM; in assay [2], 3.3 nM; in assay [3] it was 0.8 nM; in assay [4], 1.7 nM; in assay [5], 7.6 nM; in assay [6], 3.02 nM.
As for `CC(C)(C)[C@@H]1NC(=O)O[C@@H]2C[C@@H]3C[C@@H]3[C@H]2CCCCCn2c(nc3cc(C#N)ccc3c2=O)O[C@@H]2C[C@@H](C(=O)N[C@]3(C(=O)NS(=O)(=O)C4(C)CC4)C[C@H]3C(F)F)N(C2)C1=O` [Example 25, (1aS,2aR,6S,9S,11R,24aR,24bS)-6-tert-butyl-15-cyano-N-[(1R,2R)-2-(difluoromethyl)-1-{[(1-methylcyclopropyl)sulfonyl]carbamoyl}cyclopropyl]-4,7,18-trioxo-1a,2,2a,4,5,6,7,10,11,20,21,22,23,24,24a,24b-hexadecahydro-1H,9H,18H-8,11-methanocyclopropa[4′,5′]cyclopenta[1′,2′:18,19][1,10,3,6,12]dioxatriazacyclonona decino[11,12-b]quinazoline-9-carboxamide], the EC50 stood at 2 nM in assay [1]; 4.4 nM in assay [2]; 0.7 nM in assay [3]; 1.8 nM in assay [4]; 7.5 nM in assay [5]; 2.72 nM in assay [6].
`COc1ccc2c(=O)n3c(nc2c1)O[C@@H]1C[C@@H](C(=O)N[C@]2(C(=O)NS(=O)(=O)C4(C)CC4)C[C@H]2C(F)F)N(C1)C(=O)[C@H](C(C)(C)C)NC(=O)O[C@@H]1C[C@@H]2C[C@@H]2[C@H]1CCCCC3` [Example 26, (1aS,2aR,6S,9S,11R,24aR,24bS)-6-tert-butyl-N-[(1R,2R)-2-(difluoromethyl)-1-{[(1-methylcyclopropyl)sulfonyl]carbamoyl}cyclopropyl]-15-methoxy-4,7,18-trioxo-1a,2,2a,4,5,6,7,10,11,20,21,22,23,24,24a,24b-hexadecahydro-1H,9H,18H-8,11-methanocyclopropa[4′,5′]cyclopenta[1′,2′:18,19][1,10,3,6,12]dioxatriazacyclonona decino[11,12-b]quinazoline-9-carboxamide]: the EC50 came out at 1 nM in assay [1]; 0.9 nM in assay [2]; 0.4 nM in assay [3]; 0.8 nM in assay [4]; 4.5 nM in assay [5]; 1.83 nM in assay [6].

The values are drawn from patent US9617310B2 (priority 2013, dated 2017).
